Test results: BindingDB's records for patent US20250099442 (Prothena Biosciences, 2025)

target: Dual specificity tyrosine-phosphorylation-regulated kinase 1A (Homo sapiens, UniProt Q13627); assay: DYRK1A Inhibition Assay
Method: Assay Procedure1. Add 5 μL enzyme & substrate mixture to each well in Column 2-23 and A24-H24 wells of the 384-well assay plate;2. Add 5 μL 0% Phosphorylation control to A1-H1 and I24-P24 wells of the assay plate;3. Add 5 μL 100% Phosphorylation control to I1-P1 wells of the assay plate;4. Spin the assay plate (1000 rpm, 1 minute @23° C.);5. Incubate enzyme with compounds for 15 minutes at 23° C.;6. Add 5 μL ATP solution to each well of the assay plate;7. Spin the plate (1000 rpm, 1 minute @23° C.);8. Incubate the assay plate for 90 minutes at 23° C.;9. Add 10 μL Development reagent A to each well of the assay plate;10. Centrifuge the plate at 1000 rpm about 15 seconds and seal a film over assay plate. Incubate the assay plate for 30 minutes at 23° C.11. Read assay plates on Envision

Structure (SMILES)	IC50
c1cc(-c2c[nH]c3cnccc23)ccn1 [US20250099442, Compound I.1]	10 to 100 nM
CC(C)n1cc(-c2ccncc2)c2ccncc21 [US20250099442, Compound I.2]	< 10 nM
CC(C)CN1CCC(C(=O)Nc2cc(-c3c[nH]c4cnccc34)ccn2)CC1 [US20250099442, Compound I.3]	< 10 nM
CC(C)CN1CCC(C(=O)Nc2cc(-c3cn(C(C)C)c4cnccc34)ccn2)CC1 [US20250099442, Compound I.4]	< 10 nM
CC(C)CN1CCC(CNc2cc(-c3c[nH]c4cnccc34)ccn2)CC1 [US20250099442, Compound I.5]	10 to 100 nM
CC(C)CN1CCC(CNc2cc(-c3cn(C(C)C)c4cnccc34)ccn2)CC1 [US20250099442, Compound I.6]	10 to 100 nM
CC(C)CN1CCC(C(=O)Nc2nccc(-c3cn(C(C)C)c4cnccc34)n2)CC1 [US20250099442, Compound I.8]	10 to 100 nM
CC(C)CN1CCC(CNc2nccc(-c3cn(C(C)C)c4cnccc34)n2)CC1 [US20250099442, Compound I.9]	100 to 1000 nM
c1ccc(Oc2cc(-c3ccc4c(c3)CCO4)ccn2)cc1 [US20250099442, Compound I.10]	> 1000 nM
c1cncc(-c2cc3c(-c4ccc5c(c4)CCO5)cncc3o2)c1 [US20250099442, Compound I.11]	> 1000 nM
COc1cccc(-c2nc3cc(NS(C)(=O)=O)cnc3s2)c1 [US20250099442, Compound I.12]	> 1000 nM
CS(=O)(=O)Nc1cnc2sc(-c3cccc(O)c3)nc2c1 [US20250099442, Compound I.13]	> 1000 nM
NC(=O)c1ccc(-c2cnc3[nH]cc(C4CCC4)c3c2)cc1 [US20250099442, Compound I.15]	100 to 1000 nM
c1cc(-c2cnc3[nH]cc(C4CCC4)c3c2)ccn1 [US20250099442, Compound I.16]	> 1000 nM
CC(C)CN1CCC(C(=O)Nc2cc(-c3ccc4c(cnn4C)c3)ccn2)CC1 [US20250099442, Compound I.17]	10 to 100 nM
CC(C)CN1CCC(C(=O)Nc2cc(-c3ccc4nn(C)cc4c3)ccn2)CC1 [US20250099442, Compound I.18]	10 to 100 nM
Cn1nc2cnccc2c1-c1ccnc(NC(=O)C2CC2)c1 [US20250099442, Compound I.25]	> 1000 nM
COCCn1nc2cnccc2c1-c1ccnc(NC(=O)C2CC2)c1 [US20250099442, Compound I.26]	> 1000 nM
c1cc(Cc2cnc3ccc(-c4ccncc4)cn23)c2cn[nH]c2c1 [US20250099442, Compound I.28]	100 to 1000 nM
Fc1ccc(COc2cc(-c3ccc4c(c3)CCO4)ccn2)cc1F [US20250099442, Compound I.35]	> 1000 nM
c1cc(-c2ccc3c(c2)CCO3)cc(OCC2CCCCN2)n1 (stereo unspecified) [US20250099442, Compound I.36]	100 to 1000 nM
Cn1ncc2ccc(-c3cncc(O[C@@H]4Cc5ccccc5[C@@H]4N)c3)cc21 [US20250099442, Compound I.37]	100 to 1000 nM
COc1cc(-c2ccc3nc(NC(=O)C4C5CC4CN(C)C5)sc3c2)ccn1 (stereo unspecified) [US20250099442, Compound I.43]	10 to 100 nM
COc1cc(-c2ccc3nc(NC(=O)C4CN(C)C4)sc3c2)ccn1 [US20250099442, Compound I.46]	10 to 100 nM
CN1CC2CC(C1)C2C(=O)Nc1nc2ccc(-c3ccncc3)cc2s1 (stereo unspecified) [US20250099442, Compound I.52]	100 to 1000 nM

Structure (SMILES)	IC50
CN1CCC(C(=O)Nc2cc(-c3cc(=O)n(C)c4ccccc34)ccn2)CC1 [US20250099442, Compound I.55]	10 to 100 nM
CN1CCC(C(=O)Nc2cc(-c3cc(Cl)cc4ncccc34)ccn2)CC1 [US20250099442, Compound I.56]	100 to 1000 nM
Cc1cc(-c2ccnc(NC(=O)C3CCN(C)CC3)c2)c2ocnc2c1 [US20250099442, Compound I.57]	100 to 1000 nM
COc1cc(-c2ccnc(NC(=O)C3CCN(C)CC3)c2)cc2cnccc12 [US20250099442, Compound I.60]	10 to 100 nM
CCOc1cc(-c2ccc3nc(NC(=O)[C@H]4CCCN(C)C4)sc3c2)ccn1 [US20250099442, Compound I.61]	100 to 1000 nM
C[C@@H]1CC(C(=O)Nc2cn3cc(-c4ccncc4)ccc3n2)C[C@H](C)N1 (stereo partly specified) [US20250099442, Compound I.65]	10 to 100 nM
C[C@@H]1CC(C(=O)Nc2cn3cc(-c4ccncc4)ccc3n2)C[C@H](C)N1C (stereo partly specified) [US20250099442, Compound I.66]	10 to 100 nM
CN1C2CCC1CC(C(=O)Nc1nc3ccc(-c4ccncc4)nc3s1)C2 (stereo unspecified) [US20250099442, Compound I.69]	< 10 nM
CN1C[C@@H]2C(C(=O)Nc3nc4ccc(-c5cccnc5)nc4s3)[C@@H]2C1 (stereo partly specified) [US20250099442, Compound I.70]	100 to 1000 nM
COc1cc(-c2ccc3nc(NC(=O)c4cccc(C#N)c4)sc3n2)ccn1 [US20250099442, Compound I.71]	< 10 nM
CN1CC2C(C1)C2C(=O)Nc1cc2cc(-c3ccncc3)cn2cn1 (stereo unspecified) [US20250099442, Compound I.72]	10 to 100 nM
Cc1c(-c2ccncc2)cn2cnc(NC(=O)C3[C@H]4CN(C)C[C@@H]34)cc12 (stereo partly specified) [US20250099442, Compound I.73]	10 to 100 nM
Cc1c(-c2ccncc2)cn2cnc(NC(=O)C3C4CNCC43)cc12 (stereo unspecified) [US20250099442, Compound I.74]	10 to 100 nM
Cc1c(C#CC2CCOCC2)nc2ccc(-c3ccncc3)cn12 [US20250099442, Compound I.76]	10 to 100 nM
O=C(O)c1ccc(-c2cnc3n2CCN(c2cccnc2)C3)cc1 [US20250099442, Compound I.78]	100 to 1000 nM
Cc1cc(-c2cnn3cc(-c4ccc5cnccc5c4)n(C)c(=O)c23)ccn1 [US20250099442, Compound I.80]	100 to 1000 nM
O=C(O)c1ccc(-c2cnc3n2CC(=O)N(C2CCOCC2)C3)cc1 [US20250099442, Compound I.81]	> 1000 nM
COc1ccc(CN2Cc3ncc(-c4ccc(C#N)cc4)n3CC2=O)cc1 [US20250099442, Compound I.82]	> 1000 nM
c1cc(-c2ccc3ncsc3c2)c(OC2CCC2)cn1 [US20250099442, Compound I.83]	100 to 1000 nM
Cc1cc(-c2cn3ncc(-c4ccc(O)c(C#N)c4)c3c(=O)n2C)ccn1 [US20250099442, Compound I.84]	10 to 100 nM
CCCOc1cc(COC2CCN(C)CC2)nc2[nH]cc(-c3ccncc3)c12 [US20250099442, Compound I.85]	10 to 100 nM
c1cncc(-c2ccc3cncc(OC4CCNC4)c3c2)c1 (stereo unspecified) [US20250099442, Compound I.87]	100 to 1000 nM
CN1CCC(Oc2cnc3[nH]cc(-c4cc[nH]c(=O)c4)c3n2)C1 (stereo unspecified) [US20250099442, Compound I.88]	100 to 1000 nM
CN1CCC(C2CN(c3ncc(-c4ccncc4)c4c3C(=O)NC4)C2)CC1 [US20250099442, Compound I.89]	> 1000 nM

More lines, now with the values ahead:

IC50	Structure (SMILES)
< 10 nM	CN1CCC(C(=O)Nc2nc3ccc(-c4ccncc4)cc3s2)CC1 [US20250099442, Compound I.14]
10 to 100 nM	c1cc(-c2ccc3ncn(C4CCCNC4)c3c2)ccn1 (stereo unspecified) [US20250099442, Compound I.19]
100 to 1000 nM	CS(=O)(=O)N1CCC[C@@H](n2cnc3ccc(-c4ccncc4)cc32)C1 [US20250099442, Compound I.22]
100 to 1000 nM	CC(=O)N1CCCC(n2cnc3ccc(-c4ccncc4)cc32)C1 (stereo unspecified) [US20250099442, Compound I.23]
10 to 100 nM	O=C(OCc1ccccc1)N1CCC(n2cnc3ccc(-c4ccncc4)cc32)CC1 [US20250099442, Compound I.30]
100 to 1000 nM	c1cc(-c2ccc3ncn(C4CCNCC4)c3c2)ccn1 [US20250099442, Compound I.31]
10 to 100 nM	CS(=O)(=O)N1CCC(n2cnc3ccc(-c4ccncc4)cc32)CC1 [US20250099442, Compound I.32]
100 to 1000 nM	N#Cc1ccc(S(=O)(=O)N2CCCC(n3cnc4ccc(-c5ccncc5)cc43)C2)cc1 (stereo unspecified) [US20250099442, Compound I.33]
< 10 nM	CN1CCC(C(=O)Nc2cc(-c3ccc4c(c3)ncn4C)ccn2)CC1 [US20250099442, Compound I.34]
10 to 100 nM	CC(=O)N1CCC(n2cnc3ccc(-c4ccncc4)cc32)CC1 [US20250099442, Compound I.38]
100 to 1000 nM	O=S(=O)(c1ccc(F)cc1)N1CCCC(n2cnc3ccc(-c4ccncc4)cc32)C1 (stereo unspecified) [US20250099442, Compound I.39]
< 10 nM	CN1CCC(C(=O)Nc2cn3cc(-c4ccncc4)ccc3n2)CC1 [US20250099442, Compound I.42]
10 to 100 nM	CN1CC(C(=O)Nc2nc3ccc(-c4ccncc4)cc3s2)C1 [US20250099442, Compound I.45]
100 to 1000 nM	c1cc(-c2ccc3nc4n(c3c2)CCNC4)ccn1 [US20250099442, Compound I.48]
10 to 100 nM	CN1CCC(N2CCn3c(nc4ccc(-c5ccncc5)cc43)C2)CC1 [US20250099442, Compound I.49]
> 1000 nM	CN1CCn2c(nc3ccc(-c4ccncc4)cc32)C1 [US20250099442, Compound I.50]
< 10 nM	CN1CCC(C(=O)Nc2nc3ccc(-c4ccncc4)nc3s2)CC1 [US20250099442, Compound I.51]
10 to 100 nM	CN1CCC(C(=O)Nc2cc3cc(-c4ccncc4)cn3cn2)CC1 [US20250099442, Compound I.58]
10 to 100 nM	CN1CCC(C(=O)Nc2cn3cc(-c4ccncc4)cc3cn2)CC1 [US20250099442, Compound I.59]
10 to 100 nM	O=C(Nc1cc2cc(-c3ccncc3)cn2cn1)C1CCOCC1 [US20250099442, Compound I.63]
10 to 100 nM	CN1CCC(C(=O)N2CCn3c(nc4ccc(-c5ccncc5)cc43)C2)CC1 [US20250099442, Compound I.64]
< 10 nM	CN1CCC(C(=O)Nc2ccc3c(-c4ccncc4)c[nH]c3n2)CC1 [US20250099442, Compound I.67]
